According to patent US9850308B2, “Neutralization of CD95 activity blocks invasion of glioblastoma cells in vivo” (Deutsches Krebsforschungszentrum Stiftung des oeffentlichen …, priority 2006, dated 2017):
“Also recorded” adds a separate entry of the source. Residues, ends and D or L forms follow the SMILES beside them. *: point of attachment. Cbz = O=C(OCc1ccccc1)*; CH2F = FC*

Assays:
[1] = test system: Jurkat A3 permanent human T-cell line; assay: Jurkat apoptosis assay (Caspase 3/7 activity); type: cell-based; settings: Jurkat cells, 250 ng/ml CD95L-T4, 30 min preincubation
GSK3β = assay: Phosphorylation (inhibition) of GSK3β, Western Blot; type: cell-based, human; settings: T98G cells, pre-treatment before CD95 stimulation
Description: The MAPK inhibitor, PD98059 (25 μM), the PI3K inhibitor […] (25 μM) and the pancaspase inhibitor zVAD-fmk (40 μM) were purchased from Calbiochem. The ILK inhibitor (20 μM) was kindly provided from S. Dedhar. Cells were preincubated with inhibitors 30 minutes (LY 290059 and zVAD-fmk) prior to treatment with either CD95L-T4 or αApo-1. Generation of Leucinezipper-CD95L (LZCD95L) was performed as previously described^41. The blocking agents (zVAD-fmk, PD98059, LY 290059 and KP-SD1) were given 30 minutes before treatment with LZ-CD95L or αApo-1. Cells were lysed for further biochemical analysis. Protein extraction and immunoblotting was performed as previously described^41.

T98G cells = assay: Migration assay (collagen-coated transwell / two dimensional migration assay); type: cell-based, human; settings: T98G cells stimulated with α-Apo-1 (2 μg/ml) or LZ-CD95L (5 ng/ml)
Description: Migration of the glioma cells in vitro was measured by the migration through Collagen 1-coated (Chemicon) transwell inserts (Falcon). 5×10^4 cells were plated in 200 μl medium onto collagen-coated (50 μg/ml) transwell inserts with 8 μm pore size. Cells were either γ-irradiated before plating or treated after plating with α-Apo1 (2 μg/ml or 0.1 μg/ml+ProteinA for cross linking), LZ-CD95L (5 ng/ml), Nok1 (50 ng)/LZ-CD95L (5 ng/ml), Nok1 (50 ng) LZ-Supernatant (SN, 5 ng/ml), CD95L (10 ng/ml) and CD95L-T34. Preferably 24 h after plating the cells were starved with basal DMEM for additional 24 h before they were treated. The number of completely migrated cells was counted at 12 h, 24 h and 36 h after treatment. In every experiment triplicates were counted for each treatment.
2.5×10^5 cells were plated onto 6 cm culture dishes 12 h prior to irradiation. […]
Knockdown experiments were performed by transient transfection with Lipofectamine 2000™ (Invitrogen Life Technologies) following the instruction manual. […] After transient transfection with the different siRNAs cells were cultured for 72 h before treated with CD95LT4 (10 ng/ml and 20 ng/ml), migration was analyzed 24 h after treatment with a two dimensional migration assay. The knockdown was controlled by quantitative real-time PCR and FACS. […] Migration was measured 24 h after treatment in a two dimensional migration assay.

Compound: APG101: fusion protein of the extracellular domain of the human CD95-receptor with human Fc, SEQ ID NO:1
- antagonism of CD95L-T4-induced apoptosis [1]: antagonizes the apoptosis inducing effect of CD95L; also recorded: antagonized by APG101 in a dose dependent manner
- antagonism of CD95L-T4-induced apoptosis ([1]; listed as AP-G101): antagonizes the apoptosis inducing activity of CD95L-T4

Compound: COC(=O)C[C@H](NC(=O)[C@H](C)NC(=O)[C@@H](NC(=O)OCc1ccccc1)C(C)C)C(=O)CF [zVAD-fmk] (Cbz-Val-Ala-Asp(OMe)-CH2F)
- blockade of CD95-induced GSK3β phosphorylation/inhibition (GSK3β): did not prevent GSK3β phosphorylation; also recorded: did not interfere with α-Apo-1 (2 μg/ml)-induced inhibition of GSK3β
- blockade of CD95-induced GSK3β phosphorylation/inhibition (GSK3β; listed as zVAD.fmk): did not block ser9 phosphorylation of GSK3β

Compound: COc1cccc(-c2cc(=O)c3ccccc3o2)c1N [PD98059]
- blockade of CD95-induced migration (T98G cells): did not interfere with CD95-induced migration
- blockade of CD95-induced migration (T98G cells; listed as PD 98059): did not interfere with the CD95-induced migration
